Data reported in ChEMBL document CHEMBL1133821, “Synthesis and antiinflammatory, analgesic activity of 3,3'-(1,2-ethanediyl)-bis[2-aryl-4-thiazolidinone] chiral compounds. Part 10” (Bioorg Med Chem Lett, 2001).

Tests used:
Rattus norvegicus [1] = assay: Reaction time in Hot plate test at a dose of 100 mg/kg perorally in rats after 60 min (p<0.05); assay type: functional; details: route oral
Rattus norvegicus [2] = assay: Animals with Ulcers in Carrageenan-induced paw edema test at a dose of 100 mg/kg perorally in rats; assay type: functional; details: route oral
Rattus norvegicus [3] = assay: Reaction time in Hot plate test at a dose of 100 mg/kg perorally in rats after 180 min (p<0.05); assay type: functional; details: route oral
Rattus norvegicus [4] = assay: Percent Edema variation in Carrageenan-induced paw edema test at a dose of 100 mg/kg perorally in rats after 120 min; assay type: functional; details: route oral
Rattus norvegicus [5] = assay: Number of writhings in Acetic acid Writhing test at a dose of 100 mg/kg perorally in rats; assay type: functional; details: route oral
Rattus norvegicus [6] = assay: Reaction time in Hot plate test at a dose of 100 mg/kg perorally in rats after 120 min (p<0.05); assay type: functional; details: route oral
Rattus norvegicus [7] = assay: Analgesic activity was determined using acetic acid writing test at a dose of 100 mg/kg perorally in rats.(p<0.01); assay type: functional; details: route oral
Rattus norvegicus [8] = assay: Percent Edema variation in Carrageenan-induced paw edema test at a dose of 100 mg/kg perorally in rats after 180 min; assay type: functional; details: route oral
[9] = Peroral dose causing 50% death of the mice population; assay type: ADME, organism-based; details: mouse, in vivo, po
Rattus norvegicus [10] = assay: Percent Edema variation in Carrageenan-induced paw edema test at a dose of 100 mg/kg perorally in rats after 60 min; assay type: functional; details: route oral
[11] = Minimum concentration which causes 50% of the Artemia salina larvae to lose mobility; assay type: ADME, organism-based; details: in vivo
Rattus norvegicus [12] = assay: Animals with Hyperemia in Carrageenan-induced paw edema test at a dose of 100 mg/kg perorally in rats; assay type: functional; details: route oral
Rattus norvegicus [13] = assay: Reaction time in Hot plate test at a dose of 100 mg/kg perorally in rats after 180 min; assay type: functional; details: route oral
Rattus norvegicus [14] = assay: Reaction time in Hot plate test at a dose of 100 mg/kg perorally in rats after 120 min; assay type: functional; details: route oral
Rattus norvegicus [15] = assay: Reaction time in Hot plate test at a dose of 100 mg/kg perorally in rats after 60 min; assay type: functional; details: route oral
Rattus norvegicus [16] = assay: Analgesic activity was determined using acetic acid writing test at a dose of 100 mg/kg perorally in rats.; assay type: functional; details: route oral
Rattus norvegicus [17] = assay: Percent Edema variation in Carrageenan-induced paw edema test at a dose of 100 mg/kg perorally in rats after 60 min (p<0.01); assay type: functional; details: route oral
Rattus norvegicus [18] = assay: Analgesic activity was determined using acetic acid writing test at a dose of 100 mg/kg perorally in rats. (p<0.01); assay type: functional; details: route oral
Rattus norvegicus [19] = assay: Percent Edema variation in Carrageenan-induced paw edema test at a dose of 100 mg/kg perorally in rats after 180 min (p<0.001); assay type: functional; details: route oral
Rattus norvegicus [20] = assay: Reaction time in Hot plate test at a dose of 100 mg/kg perorally in rats after 60 min (p<0.01); assay type: functional; details: route oral
Rattus norvegicus [21] = assay: Reaction time in Hot plate test at a dose of 100 mg/kg perorally in rats after 120 min (p<0.01); assay type: functional; details: route oral
Rattus norvegicus [22] = assay: Percent Edema variation in Carrageenan-induced paw edema test at a dose of 100 mg/kg perorally in rats after 120 min (p<0.05); assay type: functional; details: route oral
Rattus norvegicus [23] = assay: Analgesic activity was determined using acetic acid writing test at a dose of 100 mg/kg perorally in rats.(p<0.05); assay type: functional; details: route oral
Rattus norvegicus [24] = assay: Percent Edema variation in Carrageenan-induced paw edema test at a dose of 100 mg/kg perorally in rats after 60 min (p<0.001); assay type: functional; details: route oral
Rattus norvegicus [25] = assay: Percent Edema variation in Carrageenan-induced paw edema test at a dose of 100 mg/kg perorally in rats after 120 min (p<0.001); assay type: functional; details: route oral
Rattus norvegicus [26] = assay: Percent Edema variation in Carrageenan-induced paw edema test at a dose of 100 mg/kg perorally in rats after 180 min (p<0.01); assay type: functional; details: route oral

## O=C1CS[C@H](c2ccc(Cl)c(Cl)c2)N1CCN1C(=O)CS[C@H]1c1ccc(Cl)c(Cl)c1
Rattus norvegicus [1]
  Reaction time: 18.7 s
Rattus norvegicus [2]
  Animals: 0%
Rattus norvegicus [3]
  Reaction time: 22.9 s
Rattus norvegicus [4]
  Edema variation: -61.1%
Rattus norvegicus [5]
  No. of writhings: 4.6
Rattus norvegicus [6]
  Reaction time: 22.5 s
Rattus norvegicus [7]
  inhibition in vivo at 100 mg/kg: 77%
Rattus norvegicus [8]
  Edema variation: -61.2%
[9]
  LD50: > 1000 mg/kg
Rattus norvegicus [10]
  Edema variation: -61.12%
[11]
  LC50: > 1000 µg/mL
Rattus norvegicus [12]
  Animals: 40%

## COc1cccc(C2SCC(=O)N2CCN2C(=O)CSC2c2cccc(OC)c2)c1 (centres undefined)
Rattus norvegicus [13]
  Reaction time: 12.9 s
Rattus norvegicus [14]
  Reaction time: 13 s
Rattus norvegicus [15]
  Reaction time: 13.4 s
Rattus norvegicus [2]
  Animals: 0%
Rattus norvegicus [16]
  inhibition in vivo at 100 mg/kg: 4%
Rattus norvegicus [4]
  Edema variation: -26.3%
Rattus norvegicus [5]
  No. of writhings: 19.5
Rattus norvegicus [17]
  Edema variation: -34.4%
Rattus norvegicus [8]
  Edema variation: -18.31%
[9]
  LD50: > 1000 mg/kg
[11]
  LC50: > 1000 µg/mL
Rattus norvegicus [12]
  Animals: 20%

## COc1ccc(C2SCC(=O)N2CCN2C(=O)CSC2c2ccc(OC)c(OC)c2)cc1OC (centres undefined)
Rattus norvegicus [2]
  Animals: 0%
Rattus norvegicus [18]
  inhibition in vivo at 100 mg/kg: 53%
Rattus norvegicus [19]
  Edema variation: -76.62%
Rattus norvegicus [20]
  Reaction time: 30.4 s
Rattus norvegicus [3]
  Reaction time: 16.8 s
Rattus norvegicus [5]
  No. of writhings: 9.6
Rattus norvegicus [21]
  Reaction time: 26.7 s
Rattus norvegicus [22]
  Edema variation: -30.13%
[9]
  LD50: > 1000 mg/kg
Rattus norvegicus [10]
  Edema variation: -2.13%
[11]
  LC50: > 1000 µg/mL
Rattus norvegicus [12]
  Animals: 20%

## COc1ccc(C2SCC(=O)N2CCN2C(=O)CSC2c2ccc(OC)cc2)cc1 (centres undefined)
Rattus norvegicus [13]
  Reaction time: 13.9 s
Rattus norvegicus [14]
  Reaction time: 15.1 s
Rattus norvegicus [15]
  Reaction time: 11.2 s
Rattus norvegicus [2]
  Animals: 0%
Rattus norvegicus [19]
  Edema variation: -64.98%
Rattus norvegicus [23]
  inhibition in vivo at 100 mg/kg: 22%
Rattus norvegicus [4]
  Edema variation: -26.62%
Rattus norvegicus [5]
  No. of writhings: 15.8
[9]
  LD50: > 1000 mg/kg
Rattus norvegicus [10]
  Edema variation: 39.52%
[11]
  LC50: > 1000 µg/mL
Rattus norvegicus [12]
  Animals: 20%

## Cc1cccc(C2SCC(=O)N2CCN2C(=O)CSC2c2cccc(C)c2)c1 (centres undefined)
Rattus norvegicus [2]
  Animals: 0%
Rattus norvegicus [4]
  Edema variation: -0.13%
Rattus norvegicus [8]
  Edema variation: -23.6%
[9]
  LD50: > 1000 mg/kg
Rattus norvegicus [10]
  Edema variation: 43.41%
[11]
  LC50: > 1000 µg/mL
Rattus norvegicus [12]
  Animals: 20%

## COc1ccc([C@H]2SCC(=O)N2CCN2C(=O)CS[C@H]2c2ccc(OC)c(F)c2)cc1F
Rattus norvegicus [13]
  Reaction time: 12.5 s
Rattus norvegicus [14]
  Reaction time: 12.3 s
Rattus norvegicus [1]
  Reaction time: 16.1 s
Rattus norvegicus [2]
  Animals: 40%
Rattus norvegicus [4]
  Edema variation: 25.12%
Rattus norvegicus [5]
  No. of writhings: 10.2
Rattus norvegicus [7]
  inhibition in vivo at 100 mg/kg: 50%
Rattus norvegicus [8]
  Edema variation: 30.11%
[9]
  LD50: > 1000 mg/kg
Rattus norvegicus [10]
  Edema variation: 22.13%
[11]
  LC50: > 1000 µg/mL
Rattus norvegicus [12]
  Animals: 20%

## O=C1CSC(c2cccc([N+](=O)[O-])c2)N1CCN1C(=O)CSC1c1cccc([N+](=O)[O-])c1 (centres undefined)
Rattus norvegicus [2]
  Animals: 0%
Rattus norvegicus [4]
  Edema variation: -0.31%
Rattus norvegicus [17]
  Edema variation: -35.52%
Rattus norvegicus [8]
  Edema variation: 23.43%
[9]
  LD50: > 1000 mg/kg
[11]
  LC50: > 1000 µg/mL
Rattus norvegicus [12]
  Animals: 40%

## O=C1CS[C@H](c2cccc([N+](=O)[O-])c2)N1CCN1C(=O)CS[C@H]1c1cccc([N+](=O)[O-])c1
Rattus norvegicus [1]
  Reaction time: 17.1 s
Rattus norvegicus [2]
  Animals: 0%
Rattus norvegicus [19]
  Edema variation: 21.11%
Rattus norvegicus [16]
  inhibition in vivo at 100 mg/kg: 13%
Rattus norvegicus [3]
  Reaction time: 22 s
Rattus norvegicus [5]
  No. of writhings: 17.8
Rattus norvegicus [6]
  Reaction time: 19.4 s
Rattus norvegicus [24]
  Edema variation: -83.3%
Rattus norvegicus [25]
  Edema variation: -67.3%
[9]
  LD50: > 1000 mg/kg
[11]
  LC50: > 1000 µg/mL
Rattus norvegicus [12]
  Animals: 40%

## COc1ccc(C2SCC(=O)N2CCN2C(=O)CSC2c2ccc(OC)c(F)c2)cc1F (centres undefined)
Rattus norvegicus [13]
  Reaction time: 13.5 s
Rattus norvegicus [15]
  Reaction time: 13.4 s
Rattus norvegicus [2]
  Animals: 0%
Rattus norvegicus [16]
  inhibition in vivo at 100 mg/kg: 20%
Rattus norvegicus [4]
  Edema variation: -23.83%
Rattus norvegicus [5]
  No. of writhings: 16.4
Rattus norvegicus [6]
  Reaction time: 16.8 s
Rattus norvegicus [26]
  Edema variation: -38.94%
[9]
  LD50: > 1000 mg/kg
Rattus norvegicus [10]
  Edema variation: 8.6%
[11]
  LC50: > 1000 µg/mL
Rattus norvegicus [12]
  Animals: 20%

## O=C1CSC(c2ccc(Cl)c(Cl)c2)N1CCN1C(=O)CSC1c1ccc(Cl)c(Cl)c1 (centres undefined)
Rattus norvegicus [1]
  Reaction time: 20 s
Rattus norvegicus [2]
  Animals: 0%
Rattus norvegicus [23]
  inhibition in vivo at 100 mg/kg: 24%
Rattus norvegicus [3]
  Reaction time: 19.8 s
Rattus norvegicus [5]
  No. of writhings: 15.2
Rattus norvegicus [6]
  Reaction time: 18.4 s
Rattus norvegicus [8]
  Edema variation: -27.48%
Rattus norvegicus [22]
  Edema variation: -31.41%
[9]
  LD50: > 1000 mg/kg
Rattus norvegicus [10]
  Edema variation: 14.04%
[11]
  LC50: > 1000 µg/mL
Rattus norvegicus [12]
  Animals: 40%

## COc1ccc(OC)c([C@H]2SCC(=O)N2CCN2C(=O)CS[C@H]2c2cc(OC)ccc2OC)c1
Rattus norvegicus [2]
  Animals: 0%
Rattus norvegicus [4]
  Edema variation: -13.5%
Rattus norvegicus [26]
  Edema variation: -39.06%
[9]
  LD50: > 1000 mg/kg
Rattus norvegicus [10]
  Edema variation: -12.48%
[11]
  LC50: > 1000 µg/mL
Rattus norvegicus [12]
  Animals: 40%

## COc1ccc(OC)c(C2SCC(=O)N2CCN2C(=O)CSC2c2cc(OC)ccc2OC)c1 (centres undefined)
Rattus norvegicus [2]
  Animals: 0%
Rattus norvegicus [4]
  Edema variation: -24.62%
Rattus norvegicus [8]
  Edema variation: -70.22%
[9]
  LD50: > 1000 mg/kg
Rattus norvegicus [10]
  Edema variation: 33.55%
[11]
  LC50: > 1000 µg/mL
Rattus norvegicus [12]
  Animals: 40%
